# Test results as given in ChEMBL document CHEMBL1143281, “New analogues of agmatine with higher affinity to imidazoline receptors” (Bioorg Med Chem Lett, 2009).
# What was measured:
# Nischarin [1] = molecular target: T1, Nischarin (Rattus norvegicus, UniProt Q4G017); assay: Displacement of [3H]clonidine from imidazoline I1 receptor in Sprague-Dawley rat kidney by liquid scintillation counting
# [2] = molecular target: T2, Adrenergic receptor alpha-2 (Rattus norvegicus, UniProt P22086+P19328+P22909); assay: Displacement of [3H]RX821002 from alpha2 adrenoceptor in Sprague-Dawley rat kidney by liquid scintillation counting; type: tissue-based
# T2 sequence (P22086 whole entry): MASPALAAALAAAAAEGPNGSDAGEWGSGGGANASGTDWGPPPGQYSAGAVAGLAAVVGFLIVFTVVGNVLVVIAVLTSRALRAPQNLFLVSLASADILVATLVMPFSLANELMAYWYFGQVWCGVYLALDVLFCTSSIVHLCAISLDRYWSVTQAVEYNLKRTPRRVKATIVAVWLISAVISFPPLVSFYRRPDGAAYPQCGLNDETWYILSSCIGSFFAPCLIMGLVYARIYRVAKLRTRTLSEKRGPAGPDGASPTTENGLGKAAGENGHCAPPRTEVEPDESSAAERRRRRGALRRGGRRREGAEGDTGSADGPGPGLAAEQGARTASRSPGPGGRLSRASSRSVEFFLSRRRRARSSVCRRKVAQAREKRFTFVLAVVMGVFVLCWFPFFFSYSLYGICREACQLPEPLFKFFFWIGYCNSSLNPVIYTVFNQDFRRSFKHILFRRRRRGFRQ
# T2 sequence (P19328 whole entry): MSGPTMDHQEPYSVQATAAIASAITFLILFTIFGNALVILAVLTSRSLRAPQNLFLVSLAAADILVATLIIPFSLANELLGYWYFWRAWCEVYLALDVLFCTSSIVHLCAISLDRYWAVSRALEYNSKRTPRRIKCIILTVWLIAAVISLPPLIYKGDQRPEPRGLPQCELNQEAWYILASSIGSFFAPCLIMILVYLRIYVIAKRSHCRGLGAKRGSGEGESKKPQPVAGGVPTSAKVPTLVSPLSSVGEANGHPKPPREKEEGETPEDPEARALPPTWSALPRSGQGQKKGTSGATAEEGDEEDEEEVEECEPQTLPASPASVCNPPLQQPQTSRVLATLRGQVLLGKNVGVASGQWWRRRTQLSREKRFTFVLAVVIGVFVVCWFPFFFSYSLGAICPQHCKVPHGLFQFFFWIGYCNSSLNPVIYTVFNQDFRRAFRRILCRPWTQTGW
# T2 sequence (P22909 whole entry): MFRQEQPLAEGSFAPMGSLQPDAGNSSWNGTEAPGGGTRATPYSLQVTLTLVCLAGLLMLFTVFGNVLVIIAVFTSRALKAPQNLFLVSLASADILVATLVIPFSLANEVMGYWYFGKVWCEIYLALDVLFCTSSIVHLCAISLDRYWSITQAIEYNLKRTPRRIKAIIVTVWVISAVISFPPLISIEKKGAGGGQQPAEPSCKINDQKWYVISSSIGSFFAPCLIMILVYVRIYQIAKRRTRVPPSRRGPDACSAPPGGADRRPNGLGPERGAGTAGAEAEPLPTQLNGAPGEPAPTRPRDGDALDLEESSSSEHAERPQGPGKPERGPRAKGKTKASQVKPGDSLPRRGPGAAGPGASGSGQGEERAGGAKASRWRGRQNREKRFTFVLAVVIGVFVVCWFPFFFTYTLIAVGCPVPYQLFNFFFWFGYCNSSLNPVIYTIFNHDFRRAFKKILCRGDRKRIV
# [3] = Displacement of [3H]2BFI from imidazoline I2 receptor in Sprague-Dawley rat brain by liquid scintillation counting
# Nischarin [4] = molecular target: T1, Nischarin; assay: Displacement of [3H]clonidine from imidazoline I1 receptor in Wistar rat kidney by liquid scintillation counting
# [5] = Displacement of [3H]2BFI from imidazoline I2 receptor in Wistar rat brain by liquid scintillation counting
# [6] = molecular target: T2, Adrenergic receptor alpha-2; assay: Displacement of [3H]RX821002 from alpha2 adrenoceptor in Wistar rat kidney by liquid scintillation counting; type: tissue-based
# T1 sequence (Q4G017 whole entry): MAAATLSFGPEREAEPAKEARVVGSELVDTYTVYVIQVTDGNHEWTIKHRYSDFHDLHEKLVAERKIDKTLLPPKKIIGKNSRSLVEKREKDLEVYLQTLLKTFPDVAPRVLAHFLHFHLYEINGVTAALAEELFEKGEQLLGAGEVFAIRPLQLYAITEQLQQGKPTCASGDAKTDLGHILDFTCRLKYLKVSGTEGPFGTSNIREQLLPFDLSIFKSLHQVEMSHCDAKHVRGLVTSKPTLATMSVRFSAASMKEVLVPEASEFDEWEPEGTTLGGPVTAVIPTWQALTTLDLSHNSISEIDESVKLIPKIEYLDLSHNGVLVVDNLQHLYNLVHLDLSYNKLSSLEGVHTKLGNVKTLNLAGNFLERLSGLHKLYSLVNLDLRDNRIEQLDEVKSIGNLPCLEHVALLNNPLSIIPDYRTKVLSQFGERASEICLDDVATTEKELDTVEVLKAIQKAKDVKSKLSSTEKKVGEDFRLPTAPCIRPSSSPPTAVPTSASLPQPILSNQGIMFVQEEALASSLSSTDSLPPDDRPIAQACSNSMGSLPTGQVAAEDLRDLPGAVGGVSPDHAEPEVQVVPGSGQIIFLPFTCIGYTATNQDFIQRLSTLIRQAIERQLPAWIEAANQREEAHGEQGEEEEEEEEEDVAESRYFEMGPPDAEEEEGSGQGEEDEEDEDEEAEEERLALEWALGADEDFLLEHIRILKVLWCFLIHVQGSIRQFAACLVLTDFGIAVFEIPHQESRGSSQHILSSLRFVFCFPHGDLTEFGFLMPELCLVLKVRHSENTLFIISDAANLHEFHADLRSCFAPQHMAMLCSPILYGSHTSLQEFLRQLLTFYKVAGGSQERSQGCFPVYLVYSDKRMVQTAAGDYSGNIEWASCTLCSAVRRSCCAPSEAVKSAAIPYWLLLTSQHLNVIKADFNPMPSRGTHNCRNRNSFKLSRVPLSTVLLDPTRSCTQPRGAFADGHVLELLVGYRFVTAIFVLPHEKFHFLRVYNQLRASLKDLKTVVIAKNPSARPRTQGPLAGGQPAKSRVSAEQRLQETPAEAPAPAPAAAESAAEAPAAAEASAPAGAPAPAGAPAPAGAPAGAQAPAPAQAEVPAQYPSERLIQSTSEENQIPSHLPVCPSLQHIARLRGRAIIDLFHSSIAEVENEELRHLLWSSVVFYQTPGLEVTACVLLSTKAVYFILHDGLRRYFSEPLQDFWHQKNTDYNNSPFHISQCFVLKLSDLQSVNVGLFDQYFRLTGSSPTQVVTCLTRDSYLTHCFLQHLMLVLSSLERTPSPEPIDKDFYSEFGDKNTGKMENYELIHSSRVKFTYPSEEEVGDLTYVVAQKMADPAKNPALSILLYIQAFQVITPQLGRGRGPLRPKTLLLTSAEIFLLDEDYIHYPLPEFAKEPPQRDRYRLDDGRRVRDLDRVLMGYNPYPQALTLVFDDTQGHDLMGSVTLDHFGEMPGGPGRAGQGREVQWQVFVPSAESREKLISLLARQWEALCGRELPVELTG
SMILES,IC50 (Nischarin [1]) [µM],Ki [2] [µM],Ki [3] [µM],IC50 (Nischarin [4]) [µM],Ki [5] [µM],Ki [6] [µM]
CN(C)CC[C@H]1CN=CN1.Cl.Cl,64,> 100,> 100,–,–,–
Br.NCC[C@@H]1CN=C(N)N1,> 100,18.82,> 100,–,–,–
Br.CC1=NC[C@H](CCN)N1,115,76.44,1.84,–,–,–
Br.CC(=O)NCC[C@@H]1CN=C(N)N1,383,> 100,> 100,–,–,–
CC(=O)NCC[C@H]1CN=CN1.CC(=O)O,213,> 100,> 100,–,–,–
Br.NCC[C@H]1CN=C(N)N1,0.477,11.77,55,–,–,–
Br.NCC[C@@H]1CN=CN1,16.5,62.07,> 100,–,–,–
Br.CN(C)CC[C@H]1CN=C(N)N1,44.8,> 52.86,> 100,–,–,–
Br.NCC[C@H]1CN=CN1,> 100,> 100,65.8,–,–,–
Br.CC(=O)NCC[C@H]1CN=C(N)N1,235,> 100,> 100,–,–,–
NCCCCN=C(N)N [AGMATINE],–,–,–,36.5,417,31.7
Clc1cccc(Cl)c1NC1=NCCN1 [CLONIDINE],0.366,–,0.364,–,–,–
